Source: article PMC6479789, “High Consistency of Structure-Based Design and X-Ray Crystallography: Design, Synthesis, Kinetic Evaluation and Crystallographic Binding Mode Determination of Biphenyl-N-acyl-β-D-Glucopyranosylamines as Glycogen Phosphorylase Inhibitors” (Molecules, 2019)

Tests used:
Assay type in all cases: biochemical
[1] = molecular target: T1, rmGPb (Oryctolagus cuniculus, UniProt P00489); assay: inorganic phosphate release, glycogen synthesis direction; crystal structure of the complex also solved
T1 construct: gene PYGM; native, purified from rabbit skeletal muscles (Fischer and Krebs), unphosphorylated b form
T1 sequence (P00489 2-843): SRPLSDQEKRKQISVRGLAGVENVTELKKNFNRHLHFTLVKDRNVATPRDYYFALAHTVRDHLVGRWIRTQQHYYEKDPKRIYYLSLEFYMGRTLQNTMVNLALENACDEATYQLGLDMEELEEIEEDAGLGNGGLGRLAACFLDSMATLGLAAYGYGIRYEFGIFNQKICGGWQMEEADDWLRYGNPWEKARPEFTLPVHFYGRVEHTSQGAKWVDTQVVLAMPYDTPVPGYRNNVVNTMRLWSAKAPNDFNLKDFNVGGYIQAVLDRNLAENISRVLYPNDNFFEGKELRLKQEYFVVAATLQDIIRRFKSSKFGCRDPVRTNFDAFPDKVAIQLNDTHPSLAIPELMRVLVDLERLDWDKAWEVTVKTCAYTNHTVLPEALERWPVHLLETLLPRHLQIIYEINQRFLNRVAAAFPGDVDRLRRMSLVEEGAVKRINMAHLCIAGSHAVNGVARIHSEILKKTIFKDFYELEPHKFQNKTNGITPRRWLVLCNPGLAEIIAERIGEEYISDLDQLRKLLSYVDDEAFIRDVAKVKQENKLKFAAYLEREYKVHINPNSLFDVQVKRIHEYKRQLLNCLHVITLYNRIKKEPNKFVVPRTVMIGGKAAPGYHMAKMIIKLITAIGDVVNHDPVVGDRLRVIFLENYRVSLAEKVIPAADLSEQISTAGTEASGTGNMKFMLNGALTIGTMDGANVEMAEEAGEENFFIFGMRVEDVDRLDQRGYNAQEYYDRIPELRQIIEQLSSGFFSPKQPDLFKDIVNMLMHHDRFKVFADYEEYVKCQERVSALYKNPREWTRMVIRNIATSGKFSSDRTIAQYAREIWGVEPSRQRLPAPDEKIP
From the text: inorganic phosphate release, glycogen synthesis direction; crystal structure of the complex also solved on rmGPb

[2] = molecular target: T2, rmGPa (Oryctolagus cuniculus, UniProt P00489); assay: inorganic phosphate release, glycogen synthesis direction
T2 construct: gene PYGM; native rabbit skeletal muscle GPb converted to the phosphorylated a form with truncated gamma subunit of rabbit phosphorylase kinase
T2 sequence (P00489 2-843): T1 sequence (P00489 2-843)
From the text: inorganic phosphate release, glycogen synthesis direction on rmGPa

[3] = molecular target: T3, hlGPa (Homo sapiens, UniProt P06737); assay: as above
T3 construct: gene PYGL; recombinant human liver GPb (produced as described previously) converted to the phosphorylated a form with truncated gamma subunit of rabbit phosphorylase kinase
T3 sequence (P06737 2-847): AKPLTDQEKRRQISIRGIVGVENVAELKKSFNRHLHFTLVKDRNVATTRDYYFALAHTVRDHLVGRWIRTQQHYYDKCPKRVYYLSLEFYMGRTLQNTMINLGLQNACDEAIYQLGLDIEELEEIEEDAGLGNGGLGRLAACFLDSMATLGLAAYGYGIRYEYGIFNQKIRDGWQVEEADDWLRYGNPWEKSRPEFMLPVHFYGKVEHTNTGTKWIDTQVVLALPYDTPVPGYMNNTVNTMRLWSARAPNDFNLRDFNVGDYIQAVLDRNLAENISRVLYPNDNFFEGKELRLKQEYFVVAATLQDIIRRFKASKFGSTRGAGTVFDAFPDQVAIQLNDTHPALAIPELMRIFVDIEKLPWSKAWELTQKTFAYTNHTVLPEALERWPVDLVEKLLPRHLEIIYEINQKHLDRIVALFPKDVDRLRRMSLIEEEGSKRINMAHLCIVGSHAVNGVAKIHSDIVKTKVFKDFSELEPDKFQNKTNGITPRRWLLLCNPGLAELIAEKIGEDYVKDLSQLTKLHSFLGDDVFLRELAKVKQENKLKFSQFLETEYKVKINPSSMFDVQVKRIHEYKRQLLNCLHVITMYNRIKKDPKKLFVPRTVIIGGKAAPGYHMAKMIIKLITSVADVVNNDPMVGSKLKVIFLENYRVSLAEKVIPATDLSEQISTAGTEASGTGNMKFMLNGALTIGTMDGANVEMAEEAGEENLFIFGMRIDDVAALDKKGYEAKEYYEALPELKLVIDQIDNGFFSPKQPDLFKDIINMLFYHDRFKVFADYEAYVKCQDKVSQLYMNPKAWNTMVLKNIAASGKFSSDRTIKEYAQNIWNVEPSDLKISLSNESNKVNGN
From the text: inorganic phosphate release, glycogen synthesis direction on hlGPa

O=C(N[C@@H]1O[C@H](CO)[C@@H](O)[C@H](O)[C@H]1O)c1cccc(-c2ccc(F)cc2)c1 [compound 3, 4’-fluoro-N-(3,4,5-trihydroxy-6-(hydroxymethyl)tetrahydro-2H-pyran-2-yl)biphenyl-3-carboxamide]
Ki [1]: 56.1 ± 4.4 µM
Ki [2]: 31.4 ± 2.2 µM
Ki [3]: 45.6 ± 1.8 µM

O=C(N[C@@H]1O[C@H](CO)[C@@H](O)[C@H](O)[C@H]1O)c1ccc(-c2ccccc2)cc1 [compound 4, N-(3,4,5-trihydroxy-6-(hydroxymethyl)tetrahydro-2H-pyran-2-yl)biphenyl-4-carboxamide]
Ki [1]: 9.7 ± 0.7 µM
Ki [2]: 12.8 ± 0.6 µM
Ki [3]: 19.4 ± 0.2 µM
